According to US20240182420A1, “MICROBIOCIDAL ISONICOTINIC AMIDE DERIVATIVES” (SYNGENTA CROP PROTECTION AG, priority 2021, published 2024):

Tests used:
[1] = test system: Glomerella lagenarium syn Colletotrichum lagenarium; assay: Glomerella lagenarium syn. Colletotrichum lagenarium (anthracnose), liquid culture growth inhibition; type: cell-based; conditions: Colletotrichum orbiculare, PDB nutrient broth, 24° C., 72 hrs, 620 nm, vs untreated control
Method: (§1) Conidia of the fungus from cryogenic storage were directly mixed into nutrient broth (PDB potato dextrose broth). A DMSO solution of the test compounds was placed into a microtiter plate (96-well format) and the nutrient broth containing the fungal spores was added to it. The test plates were incubated at 24° C. and the inhibition of growth was determined photometrically after 72 hrs at 620 nm.

[2] = test system: Botryotinia fuckeliana syn. Botrytis cinerea; assay: Botryotinia fuckeliana syn. Botrytis cinerea (gray mould), liquid culture growth inhibition; type: cell-based; conditions: PDB nutrient broth, 24° C., 72 hrs, photometric, vs untreated control
Method: as §1, with “hrs.” for “hrs at 620 nm.”

Compound | inhibition of growth at 20 ppm [1] [%] | inhibition of growth at 20 ppm [2] [%]
Cc1nccc(C(=O)NCC(F)c2ccc(Cl)cc2Cl)c1Oc1cccc(C2CC2)c1 (stereo not drawn) [Compound 1.12, 3-(3-cyclopropyl-phenoxy)-N-[2-(2,4-dichlorophenyl)-2-fluoro-ethyl]-2-methyl-pyridine-4-carboxamide] | ≥ 80 | –
Cc1cc(C(=O)NCC(F)c2ccc(Cl)cc2Cl)c(Oc2cccc(C3CC3)c2)c(Cl)n1 (stereo not drawn) [Compound 1.17, 2-chloro-3-(3-cyclopropyl-phenoxy)-N-[2-(2,4-dichlorophenyl)-2-fluoro-ethyl]-6-methyl-pyridine-carboxamide] | ≥ 80 | ≥ 80
O=C(NCCc1ccc(Cl)cc1Cl)c1cc(C(F)(F)F)ncc1Oc1cccc(C2CC2)c1 [Compound 1.19, 5-(3-cyclopropyl-phenoxy)-N-[2-(2,4-dichlorophenyl)ethyl]-2-(trifluoromethyl) pyridine-4-carboxamide] | ≥ 80 | –
N#Cc1ccccc1CCNC(=O)c1cc(Cl)ncc1Oc1cccc(C2CC2)c1 [Compound 1.23, 2-chloro-N-[2-(2-cyanophenyl)ethyl]-5-(3-cyclopropyl-phenoxy)pyridine-4-carboxamide] | ≥ 80 | –
O=C(NCCc1ccc(Cl)cc1)c1cc(Cl)ncc1Oc1cccc(C2CC2)c1 [Compound 1.24, 2-chloro-N-[2-(4-chlorophenyl)ethyl]-5-(3-cyclopropyl-phenoxy)pyridine-4-carboxamide] | ≥ 80 | ≥ 80
COc1ccc(CCNC(=O)c2cc(Cl)ncc2Oc2cccc(C3CC3)c2)cc1OC [Compound 1.26, 2-chloro-5-(3-cyclopropyl-phenoxy)-N-[2-(3,4-dimethoxyphenyl)ethyl]pyridine-4-carboxamide] | ≥ 80 | –
O=C(NCCc1ccccc1)c1cc(Cl)ncc1Oc1cccc(C2CC2)c1 [Compound 1.29, 2-chloro-5-(3-cyclopropyl-phenoxy)-N-(2-phenylethyl) pyridine-4-carboxamide] | ≥ 80 | –
O=C(NCCc1ccc(F)cc1)c1cc(Cl)ncc1Oc1cccc(C2CC2)c1 [Compound 1.31, 2-chloro-5-(3-cyclopropyl-phenoxy)-N-[2-(4-fluorophenyl)ethyl]pyridine-4-carboxamide] | ≥ 80 | –
O=C(NCC(F)(F)c1ccc(F)cc1F)c1cc(Cl)ncc1Oc1cccc(C2CC2)c1 [Compound 1.32, 2-chloro-5-(3-cyclopropyl-phenoxy)-N-[2-(2,4-difluorophenyl)-2,2-difluoro-ethyl]pyridine-4-carboxamide] | ≥ 80 | ≥ 80
O=C(NCCc1ccccc1Cl)c1cc(Cl)ncc1Oc1cccc(C2CC2)c1 [Compound 1.33, 2-chloro-N-[2-(2-chlorophenyl)ethyl]-5-(3-cyclopropyl-phenoxy)pyridine-4-carboxamide] | ≥ 80 | –
N#Cc1ccc(CCNC(=O)c2cc(Cl)ncc2Oc2cccc(C3CC3)c2)cc1 [Compound 1.34, 2-chloro-N-[2-(4-cyanophenyl)ethyl]-5-(3-cyclopropyl-phenoxy) pyridine-4-carboxamide] | ≥ 80 | –
Cc1cc(C(=O)NC[C@H](F)c2ccc(Cl)cc2Cl)c(Oc2cccc(C3CC3)c2)cn1 [Compound 1.42, 5-(3-cyclopropyl-phenoxy)-N-[(2R)-2-(2,4-dichlorophenyl)-2-fluoro-ethyl]-2-methyl-pyridine-4-carboxamide] | ≥ 80 | ≥ 80
O=C(NCCc1ccc(Cl)cc1Cl)c1cc(Cl)ncc1Oc1ccccc1 [Compound 1.45, 2-chloro-N-[2-(2,4-dichlorophenyl)ethyl]-5-phenoxy-pyridine-4-carboxamide] | – | ≥ 80
Cc1cccc(Oc2cnc(Cl)cc2C(=O)NCCc2ccc(Cl)cc2)c1 [Compound 1.47, 2-chloro-N-[2-(4-chlorophenyl)ethyl]-5-(3-methylphenoxy) pyridine-4-carboxamide] | ≥ 80 | ≥ 80
Cc1ccc(CCNC(=O)c2cc(Cl)ncc2Oc2cccc(C3CC3)c2)cc1 [Compound 1.53, 2-chloro-5-(3-cyclopropyl-phenoxy)-N-[2-(p-tolyl)ethyl]pyridine-4-carboxamide] | ≥ 80 | ≥ 80
Cc1cccc(Oc2cnc(Cl)cc2C(=O)NCCc2ccccc2Cl)c1 [Compound 1.54, 2-chloro-N-[2-(2-chlorophenyl)ethyl]-5-(3-methylphenoxy) pyridine-4-carboxamide] | – | ≥ 80

Compound | inhibition of growth at 20 ppm [1] [%] | inhibition of growth at 20 ppm [2] [%]
COc1ccc(CCNC(=O)c2cc(Cl)ncc2Oc2cccc(C)c2)cc1 [Compound 1.55, 2-chloro-N-[2-(4-methoxyphenyl)ethyl]-5-(3-methylphenoxy) pyridine-4-carboxamide] | – | ≥ 80
Cc1ccc(CCNC(=O)c2cc(Cl)ncc2Oc2cccc(C)c2)cc1 [Compound 1.57, 2-chloro-5-(3-methylphenoxy)-N-[2-(p-tolyl)ethyl]pyridine-4-carboxamide] | ≥ 80 | ≥ 80
Cc1cccc(Oc2cnc(Cl)cc2C(=O)NCC(F)c2ccc(F)cc2F)c1 (stereo not drawn) [Compound 1.59, 2-chloro-N-[2-(2,4-difluorophenyl)-2-fluoro-ethyl]-5-(3-methylphenoxy) pyridine-4-carboxamide] | – | ≥ 80
O=C(NCC(F)c1ccc(Cl)cc1Cl)c1cc(Cl)ncc1Oc1ccc(F)c(F)c1 (stereo not drawn) [Compound 1.62, 2-chloro-N-[2-(2,4-dichlorophenyl)-2-fluoro-ethyl]-5-(3,4-difluorophenoxy) pyridine-4-carboxamide] | – | ≥ 80
CCOc1cccc(Oc2cnc(Cl)cc2C(=O)NCC(F)c2ccc(Cl)cc2Cl)c1 (stereo not drawn) [Compound 1.65, 2-chloro-N-[2-(2,4-dichlorophenyl)-2-fluoro-ethyl]-5-(3-ethoxyphenoxy) pyridine-4-carboxamide] | ≥ 80 | –
CCc1cccc(Oc2cnc(Cl)cc2C(=O)NCC(F)c2ccc(Cl)cc2Cl)c1 (stereo not drawn) [Compound 1.66, 2-chloro-N-[2-(2,4-dichlorophenyl)-2-fluoro-ethyl]-5-(3-ethylphenoxy) pyridine-4-carboxamide] | ≥ 80 | ≥ 80
O=C(NCC(F)c1ccc(Cl)cc1Cl)c1cc(Cl)ncc1Oc1ccccc1 (stereo not drawn) [Compound 1.67, 2-chloro-N-[2-(2,4-dichlorophenyl)-2-fluoro-ethyl]-5-phenoxy-pyridine-4-carboxamide] | – | ≥ 80
O=C(NCCc1ccc(Cl)cc1Cl)c1cc(Cl)ncc1Oc1cccc(Cl)c1 [Compound 1.68, 2-chloro-5-(3-chlorophenoxy)-N-[2-(2,4-dichlorophenyl)ethyl]pyridine-4-carboxamide] | ≥ 80 | ≥ 80
O=C(NCC(F)(F)c1ccccc1)c1cc(Cl)ncc1Oc1cccc(C2CC2)c1 [Compound 1.71, 2-chloro-5-(3-cyclopropyl-phenoxy)-N-(2,2-difluoro-2-phenyl-ethyl)pyridine-4-carboxamide] | ≥ 80 | ≥ 80
O=C(N[C@@H]1C[C@@H]1c1ccc(F)cc1)c1cc(Cl)ncc1Oc1cccc(C2CC2)c1 [Compound 1.75, 2-chloro-5-(3-cyclopropyl-phenoxy)-N-[(1R,2R)-2-(4-fluorophenyl)cyclopropyl]pyridine-4-carboxamide] | ≥ 80 | ≥ 80
Cc1ccc(C(F)(F)CNC(=O)c2cc(Cl)ncc2Oc2cccc(C3CC3)c2)c(C)c1 [Compound 1.76, 2-chloro-5-(3-cyclopropyl-phenoxy)-N-[2-(2,4-dimethylphenyl)-2,2-difluoro-ethyl]pyridine-4-carboxamide] | ≥ 80 | ≥ 80
Cc1ccc(CCNC(=O)c2cc(Cl)ncc2Oc2cccc(C3CC3)c2)c(C)c1 [Compound 1.77, 2-chloro-5-(3-cyclopropyl-phenoxy)-N-[2-(2,4-dimethylphenyl)ethyl]pyridine-4-carboxamide] | ≥ 80 | ≥ 80
CC(C)=Cc1ncc(Oc2cccc(C3CC3)c2)c(C(=O)NCC(F)c2ccc(Cl)cc2Cl)c1O (stereo not drawn) [Compound 1.89, 5-(3-cyclopropyl-phenoxy)-N-[2-(2,4-dichlorophenyl)-2-fluoro-ethyl]-3-hydroxy-2-(2-methylprop-1-enyl)pyridine-4-carboxamide] | ≥ 80 | ≥ 80
Cc1cc(C(=O)NCC2(c3ccc(Cl)cc3Cl)CC2)c(Oc2cccc(C3CC3)c2)cn1 [Compound 1.90, 5-(3-cyclopropyl-phenoxy)-N-[[1-(2,4-dichlorophenyl)cyclopropyl]methyl]-2-methyl-pyridine-4-carboxamide] | ≥ 80 | ≥ 80
Cc1cncc(Oc2cccc(C3CC3)c2)c1C(=O)NC[C@@H](F)c1ccc(Cl)cc1Cl [Compound 1.93, 3-(3-cyclopropyl-phenoxy)-N-[(2S)-2-(2,4-dichlorophenyl)-2-fluoro-ethyl]-5-methyl-pyridine-4-carboxamide] | ≥ 80 | ≥ 80
N#Cc1cncc(Oc2cccc(C3CC3)c2)c1C(=O)NCC(F)c1ccc(Cl)cc1Cl (stereo not drawn) [Compound 1.97, 3-cyano-5-(3-cyclopropyl-phenoxy)-N-[2-(2,4-dichlorophenyl)-2-fluoro-ethyl]pyridine-4-carboxamide] | ≥ 80 | –
